Data: US8211883B2, “Topical delivery of phthalocyanines” (priority 2004, dated 2012)
Marks after values point to notes of the source that are not given here.

How the values were obtained:
[1] = test system: Chinese hamster V79-379 lung fibroblasts; experiment: Uptake of phthalocyanines into V79 cells; conditions: for n Moles/10^6 Cells/μM (composite uptake value): V79 cells, average of all data, asterisk: listed value is for 1 μM, average would be higher
Description: Chinese hamster V79-379 lung fibroblasts were grown in monolayer culture in McCoy's 5A medium (Gibco Laboratories, Grand Island, N.Y.) augmented with 10% calf serum and buffered with 20 mM HEPES (pH 7.4).
Total uptake was determined by scraping the phthalocyanine-treated monolayer, collecting the cells on a glass-fiber filter, and extracting the phthalocyanine in ethanol, as previously described by Ramakrishnan, et al., 1989. (Ramakrishnan, N., M. E. Clay, M. F. Horng, A. R. Antunez, & H. H. Evans, “DNA Lesions and DNA Degradation in Mouse Lymphoma L5178Y Cells After Photodynamic Treatment Sensitized by Chloroaluminum Phthalocyanine”, Photochem. Photobiol, in press, 1989). The amount of drug was determined by absorption at 674 nm and expressed relative to the number of cells, as measured in a Coulter cell counter on an aliquot of the cell population. Controls included cells not treated with drug, medium alone, and drug-containing medium without cells.
The cells were treated with 1 μM AlPcCl (from Eastman Kodak, Rochester, N.Y.) or with phthalocyanine compositions I-VI (0.5-1.0 μM final concentration in the medium) for 18 hours by adding the appropriate volume of a 1.0 mM stock solution in dimethylformamide (DMF) to the culture medium. The growth medium was replaced with 4 mL Hank's balanced salt solution (HBSS), and the cells were irradiated. The light source was a 500 W tungsten-halogen lamp located approximately 29 inches below the surface of a glass exposure tray. The visible light administered to the cells was filtered to allow passage of only that portion of the visible spectrum above 600 nm (Lee Primary red filter No. 106, Vincent Lighting, Cleveland, Ohio). The fluence rate was approximately 0.074 kJ/m^2/s at the level of the cell monolayer.
V79 cells Chinese hamster lung fibroblasts were cultured using the cell culture methods described above. The phthalocyanines listed in table 2 were added to the cultures typically at concentrations of 1 μM, 2 μM, and/or 4 μM and incubated for 18 hours, after which aliquots of the cells were counted and other aliquots were collected on a glass fiber filter. When the filters were dry, the phthalocyanines were extracted into ethanol and the absorption determined at the peak wavelength, usually 668 nm. Values were converted to nmoles taken up by 10^6 cells, using an extinction coefficient of 2.93×10^5.

[2] = test system: Chinese hamster V79-379 lung fibroblasts; experiment: Clonogenic cell survival of V79 cells after photodynamic treatment; format: cell-based; conditions: for LD 90 (light dosage that kills 90% of cells): 18 hours, 675 nm red light, VII# preplated data only, XXI* not totally soluble at 0.5 mM
Description: Cells were irradiated at a density of approximately 2×10^6 per 25 cm^2 flask. Immediately after irradiation, the cell monolayer was treated with trypsin, and appropriate aliquots were plated in triplicate to give 100 to 200 colonies in each 10-cm Petri dish. Cell survival was determined by the ability of the cells to form colonies containing at least 50 cells. The response of cells treated with 1 μM AlPcCl and light was compared in each experiment.
Photocytotoxicity of the phthalocyanines compounds I to VI was also assessed by clonogenic assay (Table 1, FIG. 1). In all experiments, 1 μM AlPcCl was included for comparison purposes. From the survival curves (FIG. 1), the fluence reducing the cell survival to 10% (F10) was obtained. The ratio of the F10 for AlPcCl and the F10 for the test compound is recorded in Table 1. Compounds I and II appear to be nearly as efficient photosensitizers as AlPcCl, while compound IV (assayed at half the concentration) was almost twice as efficient as the standard AlPcCl. […] However, in spite of the low efficiency of compound V in inhibiting cell growth, survival measurements were made for this compound, because it was taken up into V79 cells somewhat more efficiently than compounds III and VI.
In order to take differences in cellular uptake into consideration in the assessment of the relative efficiency of these phthalocyanines as photosensitizers of V79 cells, the survival data were replotted against the product of intracellular phthalocyanine concentration and light fluence (FIG. 2). From these curves, the product of intracellular concentration and light fluence reducing survival to 10% (CF10) was obtained, and comparisons of the values for AlPcCl and the test compounds are recorded in Table 1. By this and the other criteria, compound IV appears to be the most efficient photosensitizer. However, when consideration is given to the lesser cell uptake of compound V, it appears to be about as strong a photosensitizer as compound IV.
Using the cell culture methods described above, V79 cells Chinese hamster lung fibroblasts were treated with either 0.5 or 1.0 μM of the phthalocyanines listed in Table 3. About 18 hours thereafter, the cells were irradiated with increasing doses of 675 nm broad band red light from a 500 W tungsten-halogen lamp fitted with a 600 nm high pass filter, to determine the light dosage that would kill 90% of the phthalocyanine treated cells. Where 90% of the cells were not killed, the maximum percent of cells killed were determined, (expressed as % survival) and the related light dosage recorded.

SMILES	Uptake Into V79 Cells, 4 μM ([1]; 18 hours)	n Moles/10^6 Cells/μM (composite uptake value) [1]	Uptake Into V79 Cells, 1 μM ([1]; 18 hours)	further results
CC(=O)OCCC[Si](C)(C)O[Si]1(O)n2c3c4ccccc4c2N=C2N=C(N=c4c5ccccc5c(n41)=NC1=NC(=N3)c3ccccc31)c1ccccc12 (centres unmarked) [Compound XIII, HOSiPcOSi(CH3)2(CH2)3OCOCH3]	1.7 ± 0.3 n Moles/10^6 cells	0.4 n Moles/10^6 Cells/μM	–	Maximum Effect (% survival at kj/m^2) ([2]; 1 μM, at 15 kj/m^2): 88% at 15
C[Si](C)(CCCN1CCOCC1)O[Si]1(O)n2c3c4ccccc4c2N=C2N=C(N=c4c5ccccc5c(n41)=NC1=NC(=N3)c3ccccc31)c1ccccc12 (centres unmarked) [Compound XIX, HOSiPcOSi(CH3)2(CH2)3NC4H8O]	2.4 ± 0.5 n Moles/10^6 cells	–	0.3 ± 0.1 n Moles/10^6 cells	Maximum Effect (% survival at kj/m^2) ([2]; 1 μM, at 10 kj/m^2): 81% at 10
C[Si](C)(CCCO)O[Si]1(O)n2c3c4ccccc4c2N=C2N=C(N=c4c5ccccc5c(n41)=NC1=NC(=N3)c3ccccc31)c1ccccc12 (centres unmarked) [Compound XVII, HOSiPCOSi(CH3)2(CH2)3OH]	1.7 ± 0.2 n Moles/10^6 cells	0.4 n Moles/10^6 Cells/μM	–	Maximum Effect (% survival at kj/m^2) ([2]; 1 μM, at 10 kj/m^2): 19% at 10
CCCCCCCCCCCC[N+](C)(C)CCC[Si](C)(C)[O][Al]1[n]2c3c4ccccc4c2N=C2N=C(N=c4c5ccccc5c([n]41)=NC1=NC(=N3)c3ccccc31)c1ccccc12.[I-] [Compound XXI, AlPcOSi(CH3)2(CH2)3N^+(CH3)2)(CH2)11CH3I^−]	5.8 ± 0.4 n Moles/10^6 cells	1.3 n Moles/10^6 Cells/μM	1.2 ± 0.2 n Moles/10^6 cells	LD 90 (light dosage that kills 90% of cells) ([2]; 0.5 μM): 15* kj/m^2
C[Si](C)(CCCN1CCSCC1)O[Si]1(O)n2c3c4ccccc4c2N=C2N=C(N=c4c5ccccc5c(n41)=NC1=NC(=N3)c3ccccc31)c1ccccc12 (centres unmarked) [Compound XXIV, HOSiPCOSi(CH3)2(CH2)3NC4H8S]	1.3 ± 0.1 n Moles/10^6 cells	<0.05* n Moles/10^6 Cells/μM	0.003 ± 0.001 n Moles/10^6 cells	Maximum Effect (% survival at kj/m^2) ([2]; 0.5 μM, at 10 kj/m^2): 100% at 10
CCCCN(CCCC)CCC[Si](C)(C)O[Si]1(O)n2c3c4ccccc4c2N=C2N=C(N=c4c5ccccc5c(n41)=NC1=NC(=N3)c3ccccc31)c1ccccc12 (centres unmarked) [Compound XXV, HOSiPcOSi(CH3)2(CH2)3N(CH2)3CH3)2]	1.5 ± 0.3 n Moles/10^6 cells	<0.05* n Moles/10^6 Cells/μM	0.02 ± 0.02 n Moles/10^6 cells	Maximum Effect (% survival at kj/m^2) ([2]; 0.5 μM, at 8 kj/m^2): 87% at 8
C[Si](C)(CCCN=C=S)O[Si]1(O)n2c3c4ccccc4c2N=C2N=C(N=c4c5ccccc5c(n41)=NC1=NC(=N3)c3ccccc31)c1ccccc12 (centres unmarked) [Compound XXVI, HOSiPcOSi(CH3)2(CH2)3NCS]	–	–	–	Maximum Effect (% survival at kj/m^2) ([2]; 1 μM, at 30 kj/m^2): 100% at 30
CN(C)CCCN(CCCN(C)C)CCC[Si](C)(C)O[Si]1(O)n2c3c4ccccc4c2N=C2N=C(N=c4c5ccccc5c(n41)=NC1=NC(=N3)c3ccccc31)c1ccccc12 (centres unmarked) [Compound XXVII, HOSiPcOSi(CH3)2(CH2)3N[(CH2)3N(CH3)2]2]	5.0 ± 0.01 n Moles/10^6 cells	1.5 n Moles/10^6 Cells/μM	1.8 n Moles/10^6 cells	LD 90 (light dosage that kills 90% of cells) ([2]; 0.5 μM): 6.8 kj/m^2
CCCCN1CCN(CCC[Si](C)(C)O[Si]2(O)n3c4c5ccccc5c3N=C3N=C(N=c5c6ccccc6c(n52)=NC2=NC(=N4)c4ccccc42)c2ccccc23)CC1 (centres unmarked) [Compound XXXI, HOSiPCOSi(CH3)2(CH2)3NC4H8N(CH2)3CH3]	–	0.3 n Moles/10^6 Cells/μM	–	Uptake Into V79 Cells, 2 μM ([1]; 2 μM, 18 hours): 0.61 ± 0.1 n Moles/10^6 cells; Maximum Effect (% survival at kj/m^2) ([2]; 0.5 μM, at 10 kj/m^2): 30% at 10
